The values that follow come from patent US20210379066A1, “COMBINATIONS OF POSITIVE ALLOSTERIC MODULATORS AND NICOTINIC ACETYLCHOLINE RECEPTOR AGONISTS FOR TREATING OCULAR CONDITIONS” (Oyster Point Pharma, Inc., priority 2018, published 2021).

The target in data set [1] is T1, human nAChR alpha4alpha6beta2 (Homo sapiens, UniProt P17787+P43681+Q15825).
T1 construct: expressed in transfected cells; host or cells: Xenopus laevis oocytes (cDNA injection)
Description: Agonist activity, two-electrode voltage clamp in Xenopus oocytes (Example 5). Format: cell-based. The following applies: versus ACh response. On the procedure:
(§1) All experiments were carried out at human nAChRs expressed in Xenopus oocytes using the method of cDNA expression. Xenopus oocytes were prepared and injected using standard procedures.
(§2) Briefly, ovaries were harvested from Xenopus Laevis females that have been deeply anesthetized by cooling at 4° C. and Tricaine methanesulfonate (MS-222 at a concentration of 150 mg/L) in sodium bicarbonate (300 mg/L). Once anesthetized the animal was decapitated and pithed following the rules of animal rights from the Geneva canton. A small piece of ovary was isolated for immediate preparation while the remaining part was placed at 4° C. in a sterile Barth solution containing in mM NaCl 88, KCl 1, NaHCO32.4, HEPES 10, MgSO4.7H2O 0.82, Ca(NO3)2.4H2O 0.33, CaCl2.6H2O 0.41, at pH 7.4, and supplemented with 20 μg/ml of kanamycin, 100 unit/ml penicillin. All recordings were performed at 18° C. and cells superfused with OR2 medium containing in mM: NaCl 88, KCl 2.5, HEPES 5, CaCl2.2H2O 1.8, MgCl2.6H2O 1, pH 7.4.
(§3) Currents evoked by ACh or other agonists were recorded using an automated process equipped with standard two-electrode voltage-clamp configuration (TEVC). Data were captured and analyzed using a HiQScreen proprietary data acquisition and analysis software running under Matlab (Mathworks Inc.).
(§4) Agonist Preparation: See Example 1. […] The test concentration of acetylcholine chloride was 1280 micromolar.
(§5) Experimental Procedures: Injections of cDNAs encoding for the human alpha3beta4, alpha3alpha5beta4, alpha4beta2, alpha4alpha6beta2, and alpha7 were performed in at least 95 oocytes using a proprietary automated injection device. Cellular receptor expression was examined at least two days later. Oocytes were poked with two electrodes and their membrane potential maintained, unless indicated, at −80 mV throughout the experiment.
(§6) A protocol to determine agonistic activity in the oocytes expressing the nAChRs was developed. Oocytes expressing a nAChR subtype were exposed to a brief test pulse of acetylcholine (1280 micromolar) while the holding current and response was evaluated. Cells displaying robust currents were washed for 90 seconds. The cells were then exposed to a series of increasing concentrations of a nAChR agonist for 10 seconds each at two minute intervals. The nAChR agonist test concentrations were 0.1, 0.3, 1, 3, 10, 30, 100, 300 (micromolar). The current evoked from exposure to the agonist at each concentration was recorded. For oocytes expressing alpha7 nAChRs, exposure to the agonist was reduced to 5 seconds. This process was repeated for each agonist tested against each type of nAChR expressing cell.

Data set [2] deals with T2, human nAChR alpha3alpha5beta4 (Homo sapiens, UniProt P30532+P30926+P32297).
T2 construct: expressed in transfected cells; host or cells: Xenopus laevis oocytes (cDNA injection)
Description: Agonist activity, two-electrode voltage clamp in Xenopus oocytes (Examples 2 and 5). Format: cell-based. The following applies: versus ACh response. How it is done: as §1, §2, §3
(§7) See Example 1. […] The test concentration of acetylcholine chloride was 1280 micromolar.
(§8) Injections of cDNAs encoding for the human alpha3beta4, alpha3alpha5beta4, alpha4beta2, and alpha7 were performed in at least 95 oocytes were performed using a proprietary automated injection and receptor expression examined at least two days later. Oocytes were poked with two electrodes and their membrane potential maintained, unless indicated, at −80 mV throughout the experiment.
(§9) A protocol to determine agonistic activity in the oocytes expressing the nAChRs was developed. The cells were exposed to a series of increasing concentrations of a compound agonist for 10 seconds each at two minute intervals. The current evoked from exposure to the agonist at each concentration was recorded. For oocytes expressing alpha7 nAChRs, exposure to the agonist was reduced to 5 seconds. This process was repeated for each agonist tested against each type of nAChR expressing cell.
(§10) To evaluate the agonistic properties of compound 1 hemi-galactarate dihydrate a protocol of brief exposures to a series of growing concentrations of compound 1 hemi-galactarate dihydrate was used.
as §4, §5, §6

A further data set deals with T3, human nAChR alpha7 (Homo sapiens, UniProt P36544).
T3 construct: expressed in transfected cells; host or cells: Xenopus laevis oocytes (cDNA injection)
The data set is described as above. Format: cell-based. The settings on record: versus ACh response. How it is done:
as §1, §2, §3, §7, §8, §9, §10, §4, §5, §6

The next data set concerns the target T4, human nAChR alpha4beta2 (Homo sapiens, UniProt P17787+P43681).
T4 construct: expressed in transfected cells; host or cells: Xenopus laevis oocytes (cDNA injection)
The data set is described as above. The settings on record: versus ACh response. Format: cell-based. On the procedure:
as §1, §2, §3, §7, §8, §9, §10, §4, §5, §6

For the next data set, the target named is T5, human nAChR alpha3beta4 (Homo sapiens, UniProt P30926+P32297).
T5 construct: expressed in transfected cells; host or cells: Xenopus laevis oocytes (cDNA injection)
Described as above. It is filed as cell-based. The settings on record: versus ACh response. How it is done: as §1, §2, §3, §7, §8, §9, §10, §4, §5, §6

Data set [3] can be described thus: Measured plasma Cmax after nasal spray (Example 4). Format: in vivo. The settings on record: human, inhaled or intranasal; blood plasma of 30 individuals; nasal spray of 1.1% compound 1 free base (2.0% hemi-galactarate dihydrate), 200 microliters total, about 2216 micrograms free base. On the procedure:
A dose of a nAChR agonist, or a pharmaceutically acceptable salt thereof, is administered to an individual. Examples of dose and volume ranges are described herein.
A blood sample is collected from an individual before administration of a nAChR agonist, or a pharmaceutically acceptable salt thereof. After administration of the nAChR agonist, or a pharmaceutically acceptable salt thereof, to the individual, multiple blood samples are collected over a period of time at certain intervals. For instance, blood samples are collected at 10 minutes, 20 minutes, 30 minutes, 1 hour, 2 hours, 3 hours, and 4 hours after administration of the nAChR agonist, or a pharmaceutically acceptable salt thereof.
Blood samples (4 mL in K2EDTA tubes) are collected from an arm vein into Vacutainer tubes containing K2EDTA. […]
All pharmacokinetic (PK) analyses and reporting are performed according to generally accepted standard operating procedures and protocol specifications. Pharmacokinetic parameters are calculated by use of generally accepted software tools, for instance Phoenix® WinNonlin® 8.0.
A plasma concentration time plot is created by plotting the concentration of the nAChR agonist, or pharmaceutically acceptable salt thereof, as a function of time. Cmax is calculated by inspection of an individual's plasma concentration time plot. […] The Cmax is calculated for an individual after a treatment. […]

T1 sequence (P43681 29-627 limits assumed): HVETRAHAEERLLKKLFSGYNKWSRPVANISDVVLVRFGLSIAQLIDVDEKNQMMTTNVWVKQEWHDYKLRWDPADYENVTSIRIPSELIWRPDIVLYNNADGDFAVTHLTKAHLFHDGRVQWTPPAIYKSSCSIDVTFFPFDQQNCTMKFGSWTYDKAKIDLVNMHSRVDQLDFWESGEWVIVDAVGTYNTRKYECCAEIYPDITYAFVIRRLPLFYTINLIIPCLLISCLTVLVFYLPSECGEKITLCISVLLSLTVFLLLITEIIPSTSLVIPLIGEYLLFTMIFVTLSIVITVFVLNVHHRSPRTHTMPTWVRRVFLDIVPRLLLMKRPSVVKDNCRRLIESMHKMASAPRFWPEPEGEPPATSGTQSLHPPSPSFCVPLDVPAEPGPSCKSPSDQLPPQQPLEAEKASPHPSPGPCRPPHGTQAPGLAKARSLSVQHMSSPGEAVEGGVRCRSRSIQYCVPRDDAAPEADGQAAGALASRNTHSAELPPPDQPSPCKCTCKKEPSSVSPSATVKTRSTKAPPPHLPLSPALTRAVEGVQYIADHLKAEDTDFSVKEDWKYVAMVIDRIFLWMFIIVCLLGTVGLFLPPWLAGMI
T1 sequence (Q15825 26-494): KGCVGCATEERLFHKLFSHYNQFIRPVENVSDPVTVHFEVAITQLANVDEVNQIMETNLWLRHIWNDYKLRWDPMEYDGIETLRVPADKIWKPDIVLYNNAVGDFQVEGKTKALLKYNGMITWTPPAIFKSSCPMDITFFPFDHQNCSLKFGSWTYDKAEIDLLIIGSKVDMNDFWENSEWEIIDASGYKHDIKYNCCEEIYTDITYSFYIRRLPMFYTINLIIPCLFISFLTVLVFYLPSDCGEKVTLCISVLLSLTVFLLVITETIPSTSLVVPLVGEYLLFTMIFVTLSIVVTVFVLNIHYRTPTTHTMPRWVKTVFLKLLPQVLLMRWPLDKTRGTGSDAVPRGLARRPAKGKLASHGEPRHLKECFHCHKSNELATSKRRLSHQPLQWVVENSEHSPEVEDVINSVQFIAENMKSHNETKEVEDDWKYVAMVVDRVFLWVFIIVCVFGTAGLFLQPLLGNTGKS
T1 sequence (P17787 26-502): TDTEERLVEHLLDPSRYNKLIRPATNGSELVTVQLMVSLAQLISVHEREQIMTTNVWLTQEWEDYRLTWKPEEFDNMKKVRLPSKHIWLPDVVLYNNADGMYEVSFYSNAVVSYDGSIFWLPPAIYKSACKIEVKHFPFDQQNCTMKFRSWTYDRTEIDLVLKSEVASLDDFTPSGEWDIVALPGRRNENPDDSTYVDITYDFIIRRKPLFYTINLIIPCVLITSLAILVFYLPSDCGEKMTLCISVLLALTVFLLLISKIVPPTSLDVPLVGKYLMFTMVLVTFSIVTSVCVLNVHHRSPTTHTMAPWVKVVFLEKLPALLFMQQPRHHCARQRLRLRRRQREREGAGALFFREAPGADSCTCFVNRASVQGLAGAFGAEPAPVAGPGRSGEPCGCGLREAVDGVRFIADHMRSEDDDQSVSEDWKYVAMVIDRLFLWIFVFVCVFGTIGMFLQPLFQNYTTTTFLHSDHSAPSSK
T4 sequence (P43681 29-627 limits assumed): as the sequence (P43681 29-627 limits assumed) above
T4 sequence (P17787 26-502): as the sequence (P17787 26-502) above
T3 sequence (P36544 23-502): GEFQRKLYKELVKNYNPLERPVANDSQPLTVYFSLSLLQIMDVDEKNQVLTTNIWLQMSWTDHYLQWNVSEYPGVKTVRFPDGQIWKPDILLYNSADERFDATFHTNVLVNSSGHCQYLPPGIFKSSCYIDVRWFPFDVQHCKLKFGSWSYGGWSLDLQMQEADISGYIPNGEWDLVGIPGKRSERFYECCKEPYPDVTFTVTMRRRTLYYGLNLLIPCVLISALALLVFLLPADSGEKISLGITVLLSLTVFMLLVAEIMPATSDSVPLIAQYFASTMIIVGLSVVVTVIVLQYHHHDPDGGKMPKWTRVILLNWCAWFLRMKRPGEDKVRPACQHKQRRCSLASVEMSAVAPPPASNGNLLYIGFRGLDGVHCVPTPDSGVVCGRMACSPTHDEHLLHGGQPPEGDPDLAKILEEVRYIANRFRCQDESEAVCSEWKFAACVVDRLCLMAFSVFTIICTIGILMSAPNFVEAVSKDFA
T2 sequence (P32297 32-505): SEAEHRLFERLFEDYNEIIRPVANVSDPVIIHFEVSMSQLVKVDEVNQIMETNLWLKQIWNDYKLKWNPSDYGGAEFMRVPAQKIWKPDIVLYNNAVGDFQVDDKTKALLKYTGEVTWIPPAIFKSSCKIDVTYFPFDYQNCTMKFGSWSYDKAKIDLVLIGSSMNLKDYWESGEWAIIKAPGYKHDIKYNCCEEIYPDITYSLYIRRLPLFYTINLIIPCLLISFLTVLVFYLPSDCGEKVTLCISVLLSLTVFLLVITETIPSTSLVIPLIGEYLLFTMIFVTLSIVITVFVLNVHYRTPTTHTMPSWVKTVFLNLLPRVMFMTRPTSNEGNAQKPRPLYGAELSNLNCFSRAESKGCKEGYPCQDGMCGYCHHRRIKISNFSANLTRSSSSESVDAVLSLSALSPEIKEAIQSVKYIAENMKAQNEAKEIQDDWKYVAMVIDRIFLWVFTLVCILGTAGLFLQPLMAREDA
T2 sequence (P30532 23-468): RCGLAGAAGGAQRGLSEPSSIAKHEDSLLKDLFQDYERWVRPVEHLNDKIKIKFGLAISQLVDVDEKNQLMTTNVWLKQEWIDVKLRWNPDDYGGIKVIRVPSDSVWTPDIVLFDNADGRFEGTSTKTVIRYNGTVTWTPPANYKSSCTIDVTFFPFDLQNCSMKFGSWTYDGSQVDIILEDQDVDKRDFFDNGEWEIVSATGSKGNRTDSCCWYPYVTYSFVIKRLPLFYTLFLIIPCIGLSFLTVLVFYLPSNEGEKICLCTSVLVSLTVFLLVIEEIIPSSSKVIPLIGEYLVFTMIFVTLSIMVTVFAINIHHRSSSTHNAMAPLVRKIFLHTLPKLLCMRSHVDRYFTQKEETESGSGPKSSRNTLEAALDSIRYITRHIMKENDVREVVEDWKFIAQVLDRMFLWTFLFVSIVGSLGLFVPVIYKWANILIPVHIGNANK
T2 sequence (P30926 22-498): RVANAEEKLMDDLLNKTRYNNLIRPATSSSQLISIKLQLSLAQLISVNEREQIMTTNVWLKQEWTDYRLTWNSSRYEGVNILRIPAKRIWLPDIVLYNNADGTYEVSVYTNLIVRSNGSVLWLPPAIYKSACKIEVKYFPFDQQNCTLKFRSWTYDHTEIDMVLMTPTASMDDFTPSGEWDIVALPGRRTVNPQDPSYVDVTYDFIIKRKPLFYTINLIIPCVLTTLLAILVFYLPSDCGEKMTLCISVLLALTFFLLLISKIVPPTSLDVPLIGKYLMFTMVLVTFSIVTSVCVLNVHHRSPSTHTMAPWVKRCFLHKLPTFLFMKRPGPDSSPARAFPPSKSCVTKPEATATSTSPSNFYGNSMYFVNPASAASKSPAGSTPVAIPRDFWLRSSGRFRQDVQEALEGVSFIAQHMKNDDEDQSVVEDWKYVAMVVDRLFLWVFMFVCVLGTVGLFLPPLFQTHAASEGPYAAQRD
T5 sequence (P32297 32-505): as the sequence (P32297 32-505) above
T5 sequence (P30926 22-498): as the sequence (P30926 22-498) above

In the case of `C(=C\[C@H]1CCNC1)/c1cncnc1` [Compound 1, (R)-5-((E)-2-pyrrolidin-3-ylvinyl)pyrimidine], the agonist character result is “full agonist” in data set [1]; “full agonist” in data set [2]; “weak partial agonist” at human nAChR alpha7; “full agonist” on human nAChR alpha4beta2; “full agonist” on human nAChR alpha3beta4. In data set [3], this molecule returned a Cmax of 2.92 ng/mL.
